Literature values as cited in patent US20150150789A1, “ANTIMICROBIAL COMPOSITIONS AND METHODS FOR PREVENTING INFECTION IN SURGICAL INCISION SITES” (TYRX, Inc., priority 2013, published 2015).

Conditions: for solubility in organic solvents: alcohols, ketones, ethers, aldehydes, acetonitrile, acetic acid, methylene chloride, chloroform (novobiocin sodium: alcohol)

For CC[C@H]1OC(=O)[C@H](C)[C@@H](O[C@H]2C[C@@](C)(OC)[C@@H](O)[C@H](C)O2)[C@H](C)[C@@H](O[C@@H]2O[C@H](C)C[C@H](N(C)C)[C@H]2O)[C@](C)(O)C[C@@H](C)C(=O)[C@H](C)[C@@H](O)[C@]1(C)O [Erythromycin], the “solubility in organic solvents” value is given as “soluble” and the solubility in water is given as “slightly soluble”.

In the case of Oc1c(Cl)cc(Cl)c(Cl)c1Cc1c(O)c(Cl)cc(Cl)c1Cl [Hexachlorophene], the “solubility in organic solvents” value is given as “soluble” and the solubility in water is given as “soluble”.

For CCOc1ccc2ccccc2c1C(=O)N[C@@H]1C(=O)N2[C@@H]1SC(C)(C)[C@@H]2C(=O)O [Nafcillin], the “solubility in organic solvents” value is given as “readily soluble” and the solubility in water is given as “readily soluble”.

For CO[C@@H]1[C@@H](OC(N)=O)[C@@H](O)[C@H](Oc2ccc3c(O)c(NC(=O)c4ccc(O)c(CC=C(C)C)c4)c(=O)oc3c2C)OC1(C)C [Novobiocin sodium], the “solubility in organic solvents” value is given as “freely soluble” and the solubility in water is given as “freely soluble”.

In the case of CO[C@H]1/C=C/O[C@@]2(C)Oc3c(C)c(O)c4c(O)c(c(/C=N/N5CCN(C)CC5)c(O)c4c3C2=O)NC(=O)/C(C)=C\C=C\[C@H](C)[C@H](O)[C@@H](C)[C@@H](O)[C@@H](C)[C@H](OC(C)=O)[C@@H]1C [Rifampin, rifampin], the “solubility in acidic aqueous solutions” value (acidic aqueous solutions) is listed as “freely soluble”, the “solubility in organic solvents” value is listed as “freely soluble” and the solubility in water is listed as “very slightly soluble”.
